Test results from patent US20080213250A1, “Use of Eph Receptor Inhibitors for the Treatment of Neurodegenerative Diseases” (priority 2004, published 2008).

What was measured:
Test in all cases: Chemical proteomics pull-down with immobilized compound, LC-MS/MS identification
Conditions in all cases: maximum in any chemical proteomics experiment
EphA4 = EphA4 (Mus musculus, UniProt Q03137)
EphB2 = target: T1, EphB2 (Mus musculus, UniProt P54763)
T1 sequence (P54763 19-986): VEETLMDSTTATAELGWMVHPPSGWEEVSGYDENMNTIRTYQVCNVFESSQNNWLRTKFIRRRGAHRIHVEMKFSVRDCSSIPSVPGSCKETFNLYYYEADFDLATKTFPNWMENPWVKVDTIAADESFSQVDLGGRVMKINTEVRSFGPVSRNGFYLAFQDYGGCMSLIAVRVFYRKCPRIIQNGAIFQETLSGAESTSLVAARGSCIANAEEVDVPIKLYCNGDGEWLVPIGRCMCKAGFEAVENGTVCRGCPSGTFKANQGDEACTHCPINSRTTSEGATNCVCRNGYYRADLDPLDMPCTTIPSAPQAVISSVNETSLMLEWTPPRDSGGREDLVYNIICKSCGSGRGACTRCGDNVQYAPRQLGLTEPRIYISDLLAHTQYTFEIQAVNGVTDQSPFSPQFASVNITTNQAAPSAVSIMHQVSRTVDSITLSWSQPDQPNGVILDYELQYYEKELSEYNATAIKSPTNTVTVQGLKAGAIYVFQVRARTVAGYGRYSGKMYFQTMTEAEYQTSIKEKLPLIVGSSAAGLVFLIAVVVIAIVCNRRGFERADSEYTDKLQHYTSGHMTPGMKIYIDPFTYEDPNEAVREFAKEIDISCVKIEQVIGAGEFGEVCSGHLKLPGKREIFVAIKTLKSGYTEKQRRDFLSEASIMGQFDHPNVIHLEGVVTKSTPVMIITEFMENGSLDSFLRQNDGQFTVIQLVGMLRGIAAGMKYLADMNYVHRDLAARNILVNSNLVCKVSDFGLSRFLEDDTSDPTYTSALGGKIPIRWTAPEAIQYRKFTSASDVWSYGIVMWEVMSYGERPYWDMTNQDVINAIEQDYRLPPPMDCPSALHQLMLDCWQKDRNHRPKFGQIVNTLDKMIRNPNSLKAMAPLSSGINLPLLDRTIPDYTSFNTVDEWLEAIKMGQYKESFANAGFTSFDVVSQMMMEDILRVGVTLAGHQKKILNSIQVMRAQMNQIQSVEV

EphB3 = target: T2, EphB3 (Mus musculus, UniProt P54754)
T2 sequence (P54754 30-993): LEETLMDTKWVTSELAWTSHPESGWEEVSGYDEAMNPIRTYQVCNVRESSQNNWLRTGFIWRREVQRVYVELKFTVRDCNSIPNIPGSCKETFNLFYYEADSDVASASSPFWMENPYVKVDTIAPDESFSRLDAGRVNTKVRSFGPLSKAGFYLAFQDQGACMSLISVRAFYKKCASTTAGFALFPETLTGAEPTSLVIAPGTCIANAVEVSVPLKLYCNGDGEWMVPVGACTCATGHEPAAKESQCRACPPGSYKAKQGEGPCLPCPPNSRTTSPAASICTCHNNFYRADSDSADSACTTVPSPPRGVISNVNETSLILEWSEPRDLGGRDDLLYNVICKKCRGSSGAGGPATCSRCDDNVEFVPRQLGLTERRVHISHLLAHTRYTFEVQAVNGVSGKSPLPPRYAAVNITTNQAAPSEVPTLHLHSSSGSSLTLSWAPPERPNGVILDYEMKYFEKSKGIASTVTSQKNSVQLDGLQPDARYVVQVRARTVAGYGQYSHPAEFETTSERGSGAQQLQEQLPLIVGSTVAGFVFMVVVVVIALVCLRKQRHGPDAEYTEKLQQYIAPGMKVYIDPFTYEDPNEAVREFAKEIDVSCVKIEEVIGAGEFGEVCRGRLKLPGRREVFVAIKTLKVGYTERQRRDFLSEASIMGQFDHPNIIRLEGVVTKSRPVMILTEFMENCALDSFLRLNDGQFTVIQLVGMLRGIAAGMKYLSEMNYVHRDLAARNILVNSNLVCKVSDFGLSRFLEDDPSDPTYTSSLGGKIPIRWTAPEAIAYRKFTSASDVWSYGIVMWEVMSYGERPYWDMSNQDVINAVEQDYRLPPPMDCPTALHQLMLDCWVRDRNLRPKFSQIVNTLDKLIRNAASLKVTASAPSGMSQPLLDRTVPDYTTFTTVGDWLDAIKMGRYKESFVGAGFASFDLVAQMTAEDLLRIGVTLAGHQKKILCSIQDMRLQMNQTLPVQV

EphB4 = target: T3, EphB4 (Mus musculus, UniProt P54761)
T3 sequence (P54761 16-987): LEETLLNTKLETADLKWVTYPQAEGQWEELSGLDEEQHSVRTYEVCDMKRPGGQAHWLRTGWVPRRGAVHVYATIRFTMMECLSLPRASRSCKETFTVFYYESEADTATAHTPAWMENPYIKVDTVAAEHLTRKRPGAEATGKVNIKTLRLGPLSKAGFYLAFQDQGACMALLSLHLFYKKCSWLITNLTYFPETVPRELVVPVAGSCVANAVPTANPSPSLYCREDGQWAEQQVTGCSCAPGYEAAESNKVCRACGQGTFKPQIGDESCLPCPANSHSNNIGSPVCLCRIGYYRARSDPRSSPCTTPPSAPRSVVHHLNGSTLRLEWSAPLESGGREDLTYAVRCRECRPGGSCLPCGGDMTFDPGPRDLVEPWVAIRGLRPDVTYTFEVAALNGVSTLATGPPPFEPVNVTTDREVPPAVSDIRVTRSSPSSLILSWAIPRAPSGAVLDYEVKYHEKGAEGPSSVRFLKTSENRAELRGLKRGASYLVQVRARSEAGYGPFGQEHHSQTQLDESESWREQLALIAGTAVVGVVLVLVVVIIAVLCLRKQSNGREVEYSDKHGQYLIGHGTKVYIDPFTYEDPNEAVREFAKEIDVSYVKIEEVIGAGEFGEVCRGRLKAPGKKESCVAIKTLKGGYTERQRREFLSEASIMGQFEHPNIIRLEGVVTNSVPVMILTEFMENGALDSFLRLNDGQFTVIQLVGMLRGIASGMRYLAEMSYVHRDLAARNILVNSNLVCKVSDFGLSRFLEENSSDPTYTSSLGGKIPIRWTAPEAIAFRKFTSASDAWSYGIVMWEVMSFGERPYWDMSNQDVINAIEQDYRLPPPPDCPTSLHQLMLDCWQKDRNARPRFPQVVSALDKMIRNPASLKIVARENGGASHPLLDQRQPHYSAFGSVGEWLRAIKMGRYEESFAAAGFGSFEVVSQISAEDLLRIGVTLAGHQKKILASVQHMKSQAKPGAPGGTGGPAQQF

Chain of EphA4 (Q03137 20-986): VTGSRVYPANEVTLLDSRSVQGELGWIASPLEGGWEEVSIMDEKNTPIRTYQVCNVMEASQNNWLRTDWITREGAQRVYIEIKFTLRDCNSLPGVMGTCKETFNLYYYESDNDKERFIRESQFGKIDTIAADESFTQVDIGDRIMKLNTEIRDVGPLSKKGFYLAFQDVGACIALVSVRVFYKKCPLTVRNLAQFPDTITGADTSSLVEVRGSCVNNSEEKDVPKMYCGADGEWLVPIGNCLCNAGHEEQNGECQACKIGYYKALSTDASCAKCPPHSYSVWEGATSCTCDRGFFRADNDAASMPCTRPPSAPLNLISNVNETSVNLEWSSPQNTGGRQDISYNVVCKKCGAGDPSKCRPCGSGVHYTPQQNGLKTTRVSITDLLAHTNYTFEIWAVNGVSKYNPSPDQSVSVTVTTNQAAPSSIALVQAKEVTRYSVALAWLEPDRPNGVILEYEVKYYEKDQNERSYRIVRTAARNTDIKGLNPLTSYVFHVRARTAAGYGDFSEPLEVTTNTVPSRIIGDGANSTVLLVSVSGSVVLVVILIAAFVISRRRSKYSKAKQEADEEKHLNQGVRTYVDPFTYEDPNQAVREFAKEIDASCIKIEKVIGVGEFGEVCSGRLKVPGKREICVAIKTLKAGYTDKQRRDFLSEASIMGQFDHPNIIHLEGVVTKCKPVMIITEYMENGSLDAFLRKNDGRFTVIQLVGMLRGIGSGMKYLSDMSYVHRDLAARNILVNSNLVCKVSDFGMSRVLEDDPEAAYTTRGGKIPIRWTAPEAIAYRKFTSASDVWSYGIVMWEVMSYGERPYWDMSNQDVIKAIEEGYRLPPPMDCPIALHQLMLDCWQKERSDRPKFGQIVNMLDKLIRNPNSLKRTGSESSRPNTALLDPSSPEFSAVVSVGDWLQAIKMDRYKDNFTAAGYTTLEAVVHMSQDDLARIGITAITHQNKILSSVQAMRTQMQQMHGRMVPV

Compound | maximal number of non-redundant peptides identified, EphA4 (EphA4) | maximal number of non-redundant peptides identified, EphB2 (EphB2) | maximal number of non-redundant peptides identified, EphB3 (EphB3) | maximal number of non-redundant peptides identified, EphB4 (EphB4)
CC(C)[C@H](CO)Nc1nc(Nc2ccc(C(=O)O)c(Cl)c2)c2ncn(C(C)C)c2n1 [Purvalanol B] | 14 | 23 | 4 | 46
CSc1cccc(Nc2ncc3cc(-c4c(Cl)cccc4Cl)c(=O)n(C)c3n2)c1 [PD173955] | 47 | 35 | 17 | 17
